# Data: PubChem BioAssay AID488833 (Sanford-Burnham Center for Chemical Genomics, 2010)
# The source made the active and inactive calls.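 How the source made its calls: active means EC50 below a set limit; inactive means the rest.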
# Target: Kappa-type opioid receptor (Homo sapiens) (UniProt P41145)
# Test: KOR agonist analogs, arrestin-GFP redistribution, SAR follow-up, imaging, image-based, set 3 (AID 488833)
# Conditions: U2OS KOR beta-arrestin-GFP translocation imaging
# Sequence of Kappa-type opioid receptor (Homo sapiens) (P41145 whole entry, looked up): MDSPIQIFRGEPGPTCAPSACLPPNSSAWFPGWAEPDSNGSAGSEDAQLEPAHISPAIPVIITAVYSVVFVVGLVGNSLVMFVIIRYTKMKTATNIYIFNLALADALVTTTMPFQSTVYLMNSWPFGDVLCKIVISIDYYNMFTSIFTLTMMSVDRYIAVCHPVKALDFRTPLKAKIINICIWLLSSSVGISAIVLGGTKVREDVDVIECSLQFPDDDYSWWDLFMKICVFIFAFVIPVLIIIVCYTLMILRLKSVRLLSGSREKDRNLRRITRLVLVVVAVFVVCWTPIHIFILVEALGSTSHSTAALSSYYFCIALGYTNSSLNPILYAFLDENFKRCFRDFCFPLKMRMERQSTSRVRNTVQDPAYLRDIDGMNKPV
structure (smiles),measurement,value
Cc1ccccc1CSc1nnc(-c2ccccn2)n1Cc1cccs1,EC50,inactive
